Tests used:
[1] = target: Amyloid-beta precursor protein (Homo sapiens) (UniProt P05067); experiment: Inhibition of amyloid beta (1 to 42) aggregation (unknown origin) at 20 uM after 48 hrs by thioflavin-T fluorescence assay relative to control
Cholinesterase = Cholinesterase (Equus caballus, UniProt P81908)
Description: Inhibition of equine serum BChE using butylthiocholine chloride as substrate incubated for 15 mins prior to substrate addition by Ellman's method

[2] = Antioxidant activity assessed as trolox equivalent of peroxyl radical scavenging activity at 1 to 5 uM after 15 mins by oxygen radical absorbance capacity-fluorescein assay; assay type: functional
Acetylcholinesterase [3] = target: T1, Acetylcholinesterase (Electrophorus electricus, UniProt O42275)
T1 sequence (O42275 whole entry): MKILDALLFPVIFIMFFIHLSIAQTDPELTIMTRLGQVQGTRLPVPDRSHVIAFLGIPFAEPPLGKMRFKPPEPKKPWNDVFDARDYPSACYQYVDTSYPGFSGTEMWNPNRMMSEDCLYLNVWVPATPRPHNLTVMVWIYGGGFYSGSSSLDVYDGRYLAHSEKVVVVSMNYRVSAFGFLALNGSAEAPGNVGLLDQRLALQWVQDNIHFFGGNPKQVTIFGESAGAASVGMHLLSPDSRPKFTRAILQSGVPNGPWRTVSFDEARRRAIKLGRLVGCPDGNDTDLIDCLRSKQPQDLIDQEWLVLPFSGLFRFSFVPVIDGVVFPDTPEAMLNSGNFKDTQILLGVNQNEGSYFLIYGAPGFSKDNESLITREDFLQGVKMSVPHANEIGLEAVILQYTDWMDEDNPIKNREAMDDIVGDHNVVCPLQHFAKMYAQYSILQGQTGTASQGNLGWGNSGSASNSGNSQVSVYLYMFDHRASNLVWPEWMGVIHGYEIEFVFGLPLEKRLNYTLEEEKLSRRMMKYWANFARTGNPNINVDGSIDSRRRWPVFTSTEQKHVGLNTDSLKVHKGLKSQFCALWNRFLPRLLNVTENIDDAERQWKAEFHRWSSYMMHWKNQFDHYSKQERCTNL
Description: Inhibition of electric eel AChE using acetylthiocholine chloride as substrate incubated for 15 mins prior to substrate addition by Ellman's method

Acetylcholinesterase [4] = target: T1, Acetylcholinesterase; experiment: Mixed-type inhibition of electric eel AChE using acetylthiocholine chloride as substrate incubated for 15 mins prior to substrate addition by Lineweaver-Burk plot analysis

Sequence of Cholinesterase (P81908 whole entry): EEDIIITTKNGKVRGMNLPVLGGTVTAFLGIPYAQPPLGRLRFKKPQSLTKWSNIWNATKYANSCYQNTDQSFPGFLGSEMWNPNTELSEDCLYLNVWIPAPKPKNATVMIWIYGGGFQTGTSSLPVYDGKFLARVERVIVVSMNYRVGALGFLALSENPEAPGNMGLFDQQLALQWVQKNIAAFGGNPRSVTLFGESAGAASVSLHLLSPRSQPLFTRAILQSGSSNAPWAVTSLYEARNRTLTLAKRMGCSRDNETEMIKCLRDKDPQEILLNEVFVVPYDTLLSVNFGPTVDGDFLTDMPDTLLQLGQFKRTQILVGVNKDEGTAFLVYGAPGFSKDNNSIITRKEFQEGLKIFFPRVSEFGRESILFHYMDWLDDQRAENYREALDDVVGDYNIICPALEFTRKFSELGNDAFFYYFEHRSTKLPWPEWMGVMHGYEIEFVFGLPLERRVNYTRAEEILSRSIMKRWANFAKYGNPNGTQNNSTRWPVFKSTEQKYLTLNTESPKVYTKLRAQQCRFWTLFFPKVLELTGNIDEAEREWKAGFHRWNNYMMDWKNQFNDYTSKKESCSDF
Sequence of Amyloid-beta precursor protein (Homo sapiens) (P05067 whole entry): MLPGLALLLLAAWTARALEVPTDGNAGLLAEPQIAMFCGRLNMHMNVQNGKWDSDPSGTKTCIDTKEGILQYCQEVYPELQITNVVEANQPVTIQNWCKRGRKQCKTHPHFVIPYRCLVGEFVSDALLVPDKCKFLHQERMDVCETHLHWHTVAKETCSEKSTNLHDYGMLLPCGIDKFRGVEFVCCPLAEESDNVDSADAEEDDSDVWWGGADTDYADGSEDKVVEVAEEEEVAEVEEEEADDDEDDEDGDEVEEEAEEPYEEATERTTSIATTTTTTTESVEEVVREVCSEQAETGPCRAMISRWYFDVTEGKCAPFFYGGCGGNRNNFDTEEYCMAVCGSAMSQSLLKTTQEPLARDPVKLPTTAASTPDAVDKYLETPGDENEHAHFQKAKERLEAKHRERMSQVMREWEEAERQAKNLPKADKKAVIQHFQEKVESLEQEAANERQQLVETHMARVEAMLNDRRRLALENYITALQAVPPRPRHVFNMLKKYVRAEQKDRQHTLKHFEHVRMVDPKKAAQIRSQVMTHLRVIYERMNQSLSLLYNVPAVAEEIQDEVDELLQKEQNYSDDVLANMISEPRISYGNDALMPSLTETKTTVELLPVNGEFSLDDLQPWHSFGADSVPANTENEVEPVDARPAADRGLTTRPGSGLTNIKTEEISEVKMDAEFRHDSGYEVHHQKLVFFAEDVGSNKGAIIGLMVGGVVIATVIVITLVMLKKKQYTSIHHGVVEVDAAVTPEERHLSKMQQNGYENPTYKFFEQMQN

Row | SMILES | inhibition [1] [%] | IC50 (Cholinesterase) [µM] | Activity [2] | IC50 (Acetylcholinesterase [3]) [µM] | Ki (Acetylcholinesterase [4]) [µM]
1 | CCN(CC)CCCCCCCCCCOc1ccc2c(=O)cc(-c3ccc(N(C)C)cc3)oc2c1 | 33.4 | 2.31 | 1.5 | 3.74 | 
2 | CN(C)c1ccc(-c2cc(=O)c3ccc(OCCCCN4CCCCC4)cc3o2)cc1 | 30.6 | 6.12 |  | 3.04 | 
3 | CN(C)c1ccc(-c2cc(=O)c3ccc(OCCCCCCCCN4CCCC4)cc3o2)cc1 | 42.1 | 2.6 | 1.5 | 1.99 | 
4 | CN(CCCCCCOc1ccc2c(=O)cc(-c3ccc(N(C)C)cc3)oc2c1)Cc1ccccc1 | 46.5 | > 50 |  | 7.85 | 
5 | CN(C)c1ccc(-c2cc(=O)c3ccc(OCCCCCCCCCCN4CCCCC4)cc3o2)cc1 | 40.7 | 2.42 | 1.5 | > 50 | 
6 | CN(C)c1ccc(-c2cc(=O)c3ccc(OCCCCCCN4CCCCC4)cc3o2)cc1 | 25.4 | 5.52 |  | 6.73 | 
7 | CN(C)c1ccc(-c2cc(=O)c3ccc(OCCCCN4CCCC4)cc3o2)cc1 | 36.6 | 6.14 |  | 2.77 | 
8 | CCN(CC)CCCCOc1ccc2c(=O)cc(-c3ccc(N(C)C)cc3)oc2c1 | 33.2 | 7.88 |  | 2.24 | 
9 | CN(CCCCOc1ccc2c(=O)cc(-c3ccc(N(C)C)cc3)oc2c1)Cc1ccccc1 | 39.1 | > 50 |  | 8.29 | 
10 | CN(CCCCCCCCCCOc1ccc2c(=O)cc(-c3ccc(N(C)C)cc3)oc2c1)Cc1ccccc1 | 29.4 | > 50 | 1.5 | 11.4 | 
11 | CCN(CC)CCCCCCOc1ccc2c(=O)cc(-c3ccc(N(C)C)cc3)oc2c1 | 38.1 | 4.61 |  | 3.11 | 
12 | CN(C)c1ccc(-c2cc(=O)c3ccc(OCCCCN4CCOCC4)cc3o2)cc1 | 44.7 | 10.1 |  | > 50 | 
13 | CN(C)c1ccc(-c2cc(=O)c3ccc(OCCCCCCCCN4CCCCC4)cc3o2)cc1 | 34.8 | 8.72 | 1.5 | 7.88 | 
14 | CN(CCCCCCCCCCCCOc1ccc2c(=O)cc(-c3ccc(N(C)C)cc3)oc2c1)Cc1ccccc1 | 48.1 | > 50 |  | 33.2 | 
15 | CN(C)c1ccc(-c2cc(=O)c3ccc(OCCCCCCN4CCCC4)cc3o2)cc1 | 32.6 | 11.5 |  | 9.18 | 
16 | CN(C)c1ccc(-c2cc(=O)c3ccc(OCCCCCCCCCCN4CCCC4)cc3o2)cc1 | 38.6 | 0.82 | 1.5 | 2.26 | 
17 | CCN(CC)CCCCCCCCOc1ccc2c(=O)cc(-c3ccc(N(C)C)cc3)oc2c1 | 45.8 | 5.01 | 1.5 | 1.83 | 0.386
18 | CN(CCCCCCCCOc1ccc2c(=O)cc(-c3ccc(N(C)C)cc3)oc2c1)Cc1ccccc1 | 39.5 | > 50 | 1.5 | 24 | 

From ChEMBL document CHEMBL3091294, “Design, synthesis and evaluation of novel 4-dimethylamine flavonoid derivatives as potential multi-functional anti-Alzheimer agents” (Bioorg Med Chem, 2013)
